{"source": "BindingDB's records for patent US12209081", "about": "(Katholieke Universiteit Leuven, 2025)", "data": [{"biological_target": "Transient receptor potential cation channel subfamily M member 3 (UniProt J9SQF3)", "sequence (J9SQF3 whole entry)": "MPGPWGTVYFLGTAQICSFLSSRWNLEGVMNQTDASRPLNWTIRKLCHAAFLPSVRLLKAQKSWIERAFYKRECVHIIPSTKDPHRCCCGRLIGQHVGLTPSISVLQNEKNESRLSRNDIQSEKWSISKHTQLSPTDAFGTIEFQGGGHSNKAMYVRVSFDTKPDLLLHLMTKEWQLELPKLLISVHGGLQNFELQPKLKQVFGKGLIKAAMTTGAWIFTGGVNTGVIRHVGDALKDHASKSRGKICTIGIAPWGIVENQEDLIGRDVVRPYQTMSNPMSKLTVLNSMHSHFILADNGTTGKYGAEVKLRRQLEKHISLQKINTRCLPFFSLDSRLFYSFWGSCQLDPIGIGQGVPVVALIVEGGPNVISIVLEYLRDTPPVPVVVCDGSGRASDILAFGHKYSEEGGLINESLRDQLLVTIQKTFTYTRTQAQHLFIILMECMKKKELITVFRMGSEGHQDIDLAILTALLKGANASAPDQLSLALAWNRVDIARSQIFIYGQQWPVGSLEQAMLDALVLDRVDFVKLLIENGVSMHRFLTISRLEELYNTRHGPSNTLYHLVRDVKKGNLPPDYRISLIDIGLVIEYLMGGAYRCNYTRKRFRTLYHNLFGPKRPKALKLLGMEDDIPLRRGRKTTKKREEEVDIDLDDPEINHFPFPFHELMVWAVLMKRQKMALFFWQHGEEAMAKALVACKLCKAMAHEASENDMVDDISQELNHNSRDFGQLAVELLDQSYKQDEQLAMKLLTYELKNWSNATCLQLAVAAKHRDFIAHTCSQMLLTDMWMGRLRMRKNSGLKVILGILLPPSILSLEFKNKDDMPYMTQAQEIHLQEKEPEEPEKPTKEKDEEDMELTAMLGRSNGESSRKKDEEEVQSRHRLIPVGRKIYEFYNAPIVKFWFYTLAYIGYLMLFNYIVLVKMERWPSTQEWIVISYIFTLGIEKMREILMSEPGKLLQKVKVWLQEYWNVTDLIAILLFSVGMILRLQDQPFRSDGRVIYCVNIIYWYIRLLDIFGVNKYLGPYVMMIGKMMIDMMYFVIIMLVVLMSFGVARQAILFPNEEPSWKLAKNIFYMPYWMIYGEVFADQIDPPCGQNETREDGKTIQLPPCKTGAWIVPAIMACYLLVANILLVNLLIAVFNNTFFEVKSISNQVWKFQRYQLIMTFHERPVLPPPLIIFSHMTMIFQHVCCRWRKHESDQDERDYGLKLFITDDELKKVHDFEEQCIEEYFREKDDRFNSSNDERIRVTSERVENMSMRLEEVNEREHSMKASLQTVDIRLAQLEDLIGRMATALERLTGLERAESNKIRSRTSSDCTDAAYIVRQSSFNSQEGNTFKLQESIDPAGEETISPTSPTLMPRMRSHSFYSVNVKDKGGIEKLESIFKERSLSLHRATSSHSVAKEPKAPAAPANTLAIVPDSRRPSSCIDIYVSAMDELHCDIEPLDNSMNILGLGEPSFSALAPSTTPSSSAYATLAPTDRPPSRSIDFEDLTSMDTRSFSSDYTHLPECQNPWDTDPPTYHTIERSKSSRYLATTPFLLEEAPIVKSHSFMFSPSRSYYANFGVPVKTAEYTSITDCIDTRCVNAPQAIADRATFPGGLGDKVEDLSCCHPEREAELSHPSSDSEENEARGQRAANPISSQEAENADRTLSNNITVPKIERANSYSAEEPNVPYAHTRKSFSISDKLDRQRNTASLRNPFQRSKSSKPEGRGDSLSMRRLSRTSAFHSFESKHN", "assay": "Monitoring the TRPM3 Ion Channel Driven Ca2+ Uptake", "protocol": "In order to monitor the inhibition of the mouse TRPM3α2 (mTRPM3) ion channel by the compounds of the invention, a cellular system making use of an mTRPM3alpha2 or hTRPM3 overexpressing cell line (flip-in HEK293) was used. The TRPM3 channel was stimulated/opened with Pregnenolone sulfate (PS) (50 μM) which results in Ca2+ influx. For mTRPM3, the intracellular Ca2+ was measured with a Calcium responsive dye. Fluor-4 AM ester (Invitrogen). Cells were cultured until a confluence of 80-90%, washed with Versene (Invitrogen) and detached from the surface by a short incubation with 0.05% Trypsin (Invitrogen). The trypsination process was stopped by the addition of complete cell culture medium (DMEM, glutamax, 10% FCS,NEAA,Pen-Strep). Cells were collected and resuspended in Krebs buffer without Calcium at RT. Prior the cell seeding (±2000 cells/well into a black, 384 well plate (Greiner)) the diluted compound was added in the assay plate, together with the PS dissolved in Krebs buffer containing Calcium. […] Directly after cell addition the plates were read on an Envision fluorescence reader (Perkin Elmer) by an Excitation of 485 nm and emission at 535 nm. Channel inhibition was calculated compared to a non-PS stimulated control versus a condition stimulated with PS (50 μM) with vehicle. The ability of the compounds of the invention to inhibit this activity was determined as: Percentage inhibition=[1-((RFU determined for sample with test compound present—RFU determined for sample with positive control inhibitor) divided by (RFU determined in the presence of vehicle—RFU determined for sample with positive control inhibitor))]*100.", "units": {"IC50": "nM"}, "values": [{"compound": "Cc1oc2ccc(OCc3cccnn3)cc2c1C(=O)NC1CCNC1=O", "note": "(stereo not drawn) [US12209081, Compound 030]", "IC50": "< 1000"}, {"compound": "Cc1oc2ccc(OCc3cncc(C(F)(F)F)c3)cc2c1C(=O)N[C@H]1CCNC1", "note": "[US12209081, Compound 055]", "IC50": "> 20000"}, {"compound": "Cc1oc2ccc(OCc3cccnc3C(F)(F)F)cc2c1C(=O)NC1(CO)COC1", "note": "[US12209081, Compound 133]", "IC50": "< 1000"}, {"compound": "Cc1ncsc1COc1ccc2oc(C)c(C(=O)NC3(CN)CCC3)c2c1", "note": "[US12209081, Compound 137]", "IC50": "< 1000"}, {"compound": "Cc1oc2ccc(OCc3cccnc3C(F)(F)F)cc2c1C(=O)Nc1cc[nH]n1", "note": "[US12209081, Compound 138]", "IC50": "< 1000"}, {"compound": "Cc1oc2ccc(OCc3cccnc3C#N)cc2c1C(=O)NC1(CO)CCOCC1", "note": "[US12209081, Compound 347]", "IC50": "< 1000"}, {"compound": "Cc1oc2ccc(OCc3ccnn3CC(F)F)cc2c1C(=O)N[C@H](CO)C(N)=O", "note": "[US12209081, Compound 456-En-2]", "IC50": "< 1000"}, {"compound": "Cc1nc(C)c(COc2ccc3oc(C)c(C(=O)N[C@H](CO)C(N)=O)c3c2)s1", "note": "[US12209081, Compound 458-En-2]", "IC50": "< 1000"}]}]}
